The values that follow come from US5843449A, “Proteins and novel peptides derived from autoantigen for use in immunotherapy of autoimmune diseases” (Akzo Nobel N.V., priority 1996, dated 1998).

The target of test [1] is T1, DR4Dw4 (DRB1*0401) HLA-DR molecules (Homo sapiens, UniProt P01903+P01911, A100K/A169T/F76Y/I96L/K127E/L162R/M171V/N62H/P40V/Q125Y/R42H/S133A/S149N/S66Y/V115G/V209L/W38E).
T1 construct: endogenous in cells; host or cells: BSM, EBV-transformed B-cell line
The experiment in a line: HLA-DR peptide binding assay (competition with biotinylated marker peptide), DR4Dw4. The settings on record: pH = 5, 50 nM biotin-spacer-IHA(307-319)F marker peptide.

Test [2] has as its target DR4Dw14 HLA-DR molecules. The experiment in a line: HLA-DR peptide binding assay (competition with biotinylated marker peptide), DR4Dw14. More on the design: species or system human. To be noted: pH = 5, 50 nM biotin-spacer-IHA(307-319)F marker peptide.

Structures are written as SMILES. Where two headings read alike, the source gives them in different places. Residues, ends and D or L forms follow the SMILES beside them.

Take `CC(C)C[C@H](NC(=O)[C@H](CCCCN)NC(=O)[C@H](CC(C)C)NC(=O)[C@@H](NC(=O)[C@H](CC(N)=O)NC(=O)[C@H](CCC(N)=O)NC(=O)[C@H](CCCCN)NC(=O)[C@@H](NC(=O)[C@H](Cc1ccccc1)NC(=O)[C@H](CCCCN)NC(=O)[C@@H]1CCCN1)C(C)C)[C@@H](C)O)C(=O)N[C@@H](C)C(=O)N[C@H](C(=O)O)[C@@H](C)O` [IHA(307-319)F, reference compound] (H-PKFVKQNTLKLAT-OH): the IC50 was determined as 550 nM in test [1] (DOT Blot, densitometer, read-out: ^R IC50, DR4Dw4, DOT Blot); 300 nM in test [1] (SDS-PAGE, visual inspection, read-out: ^R IC50, DR4Dw4, SDS-PAGE); 530 nM in test [2] (DOT Blot, densitometer, read-out: ^R IC50, DR4Dw14, DOT Blot); 300 nM in test [2] (SDS-PAGE, visual inspection, read-out: ^R IC50, DR4Dw14, SDS-PAGE).
